# Test results taken from patent US12662509B2, “Inhibitors of 17β-HSD7 and uses thereof” (UNIVERSITÉ LAVAL, priority 2021, dated 2026).
# Columns and labels:
# [1] = Cytotoxicity on the MCF-10A cell line; assay type: cell-based; conditions: human, MCF-10A cells; incubation time 3 days; 1 nM-100 μM
# Experimental: (§1) FIG. 9A—is an illustration of the cytotoxicity of the INH7-464 inhibitor on the MCF-7 cell line. FIG. 9B—is an illustration of the cytotoxicity of the INH7-464 inhibitor on the MCF-10A cell line. Paclitaxel (PTX) was used as the reference compound and was dissolved in DMSO for the stock solutions. The stock solutions were subsequently diluted at multiple concentrations with culture media in order to obtain the final desired concentrations ranging between 1 nM-100 μM. The incubation time was 3 days. The IC50 values (at which 50% of cell growth inhibition—concentration that inhibits 50% of cell proliferation—is observed) were calculated using an iterative least square regression method (cf. Table 3). The cytotoxicity values for the INH7-464 inhibitor were lower than those for Paclitaxel (PTX) in the different cell lines (cf. Table 3).
# (§2) Paclitaxel (PTX) was used as a reference compound and was dissolved in DMSO for the stock solutions. The stock solutions were subsequently diluted at multiple concentrations with culture media in order to obtain the final desired concentrations ranging from 1 nM-100 μM. The incubation time was 3 days. The IC50 values (at which 50% of cell growth inhibition—concentration that inhibits 50% of cell proliferation—is observed) were calculated using an iterative least square regression method.
# [2] = Cytotoxicity on the MCF-7 cell line; assay type: cell-based; conditions: human, MCF-7 cells; incubation time 3 days; 1 nM-100 μM
# Experimental: as §1, §2
# human T47D breast tumors = assay: T47D xenograft tumor growth in OVX nude mice; assay type: in vivo; conditions: for growth of human T47D breast tumors, % of initial growth: OVX nude mice, INH7 groups 5 mg/kg/day + E1 0.1 μg/mice/day, E1, E2 groups 0.1 μg/mice/day
# From the text: FIG. 5—is an illustration of the effect of various inhibitors of 17 β-HSD1 (INH7-10 and INH7-464) on the growth of human T47D breast tumors in nude mice over a period of 22 days; illustration of the regression of T47D xenograft tumor growth in OVX nude mice by (cf. Table 2). The growth regression curves represent the decrease in tumor volume in response to INH7 (INH7-10 and INH7-464) treatment (Groups 4 and 5). […] Statistical significance by one-way ANOVA assay is shown by **P<0.01.
# (§3) Female athymic nude mice (4 weeks) were ovariectomized under isoflurane-induced anesthesia. One week after ovariectomy (OVX), 5×10^6 MCF-7 cells or 10×10^6 T47D cells suspended in a […] mixture of Matrigel (BD)/culture medium (50:50) were administered by s.c. injection on both side of each mice. All mice were supplemented by daily s.c. injection 0.1 μg Estradiol (E2) for 5 weeks. […] The animals were euthanized on day 23, followed by the collection of tumor specimens and blood samples. The estrogen-sensitive organs (uterus and vagina), liver and kidney were removed and excised of fat and weighed. Tumor specimens were photographed and weighed.
# [3] = system: human MCF-7 breast tumors; assay: MCF-7 xenograft tumor growth in OVX nude mice; assay type: in vivo; conditions: for growth of human MCF-7 breast tumors, % of initial growth: OVX nude mice, INH7 groups 5 mg/kg/day + E1 0.1 μg/mice/day, E1, E2 groups 0.1 μg/mice/day
# From the text: FIG. 4—is an illustration of the effect of various inhibitors of 17 β-HSD1 (INH7-10 and INH7-464) on the growth of human MCF-7 breast tumors in nude mice over a period of 22 days; illustration of the regression of MCF-7 xenograft tumor growth in OVX nude mice (cf. Table 1). The growth regression curves represent the decrease in tumor volume in response to INH7 (INH7-10 and INH7-464) treatment (Groups 4 and 5). […] Tumor volume=0.52×(length×width^2). Statistical significance by one-way ANOVA assay is shown by **P<0.01.
# as §3
# [4] = Toxicity of INH7-464 in mice, weekly s.c. injection over 21 days; assay type: in vivo
# Experimental: FIG. 10—is an illustration of the toxicity of the INH7-464 inhibitor in mice (8 mice/group) at various concentrations over a period of 21 days. Control Group: 0.4% methylcellulose/DMSO (92/8). INH7-464 group: Day 1: 20 mg/kg (INH7-464); Day 8: 30 mg/kg (INH7-464); Day 15: 60 mg/kg (INH7-464). […] Statistical significance by T-test is shown by ***P<0.001.
# FIG. 11—is an illustration of the effect (toxicity) of the INH7-464 inhibitor on the liver, kidney, ovary and uterus weight, as per the toxicity experiment illustrated in FIG. 10.
# INH7-464 was administered by s.c. injection. INH7-464 was first dissolved in DMSO, followed by the addition of 0.4% methylcellulose to obtain a final 8% concentration of co-solvent (methylcellulose/DMSO (92/8). The injected volume was 0.1 mL (s.c.). […] All the mice were weighed every day. The liver, kidney, ovaries, and uterus were collected and weighed following 3 weeks of treatment.
# MCF-7 cell proliferation = assay: Effect of INH7 inhibitors on MCF-7 cell proliferation (DNA synthesis, 144 hours, E1 0.1 nM); assay type: cell-based, human; conditions: 2 μM
# Experimental: FIG. 1—is an illustration of the effect of various inhibitors of […] (INH7-10, INH7-81 and INH7-464) on MCF-7 cell proliferation over a period of 144 hours.
# The effects of various inhibitors, including INH7-464, on MCF-7 cell proliferation over a period of 144 hours is illustrated in FIG. 1. The hormone source E1 (Estrone) was provided at 0.1 nM. Data are reported as % of DNA synthesis vs Control (0.1 nM E1) (100%). Quadruple wells were used for each condition and repeated in three independent experiments. Error bars represent SD. *, P<0.05 vs control; **, P<0.001 vs. control by Student's test.
# [5] = Body weight of nude mice during treatment of MCF-7 and T47D tumors; assay type: in vivo; conditions: MCF-7 and T47D tumor-bearing nude mice; 22 days; 5 mg/kg/day
# From the text: FIG. 6A—is an illustration of the body weight of the nude mice following treatment of human MCF-7 and T47D breast tumors with INH7-47 over a period of 22 days. […] (FIG. 6B) is an illustration of the body weight of the OVX nude mice (mice having undergone an ovariectomy) over a period of 22 days. The OVX mice were not treated with an INH7 inhibitor, but instead were subjected to daily subcutaneous (s.c.) injection with vehicle (0.4% methylcellulose/DMSO (92/8)).
# as §3
Compound,IC50 at 3 days [1],IC50 at 3 days [2],"growth of human T47D breast tumors, % of initial growth (human T47D breast tumors; day 0)","growth of human T47D breast tumors, % of initial growth (human T47D breast tumors; day 5)","growth of human T47D breast tumors, % of initial growth (human T47D breast tumors; day 9)","growth of human T47D breast tumors, % of initial growth (human T47D breast tumors; day 12)","growth of human T47D breast tumors, % of initial growth (human T47D breast tumors; day 15)","growth of human T47D breast tumors, % of initial growth (human T47D breast tumors; day 19)","growth of human T47D breast tumors, % of initial growth (human T47D breast tumors; day 22)","growth of human MCF-7 breast tumors, % of initial growth ([3]; day 0)","growth of human MCF-7 breast tumors, % of initial growth ([3]; day 5)","growth of human MCF-7 breast tumors, % of initial growth ([3]; day 9)","growth of human MCF-7 breast tumors, % of initial growth ([3]; day 12)","growth of human MCF-7 breast tumors, % of initial growth ([3]; day 13)","growth of human MCF-7 breast tumors, % of initial growth ([3]; day 19)","growth of human MCF-7 breast tumors, % of initial growth ([3]; day 22)",further results
"CC(=O)O[C@H]1C(=O)[C@@]2(C)[C@H]([C@H](OC(=O)c3ccccc3)[C@]3(O)C[C@H](OC(=O)[C@H](O)[C@@H](NC(=O)c4ccccc4)c4ccccc4)C(C)=C1C3(C)C)[C@]1(OC(C)=O)CO[C@@H]1C[C@@H]2O [Paclitaxel (PTX), Paclitaxel]",0.637 nM,3.08 nM,,,,,,,,,,,,,,,
"C[C@]12CC[C@@H]3c4ccc(O)cc4CC[C@H]3[C@@H]1CCC2=O [E1, Estrone]",,,100%,93.64%,113.43%,112.0519%,122.0034%,112.9356%,112.831%,100%,102.886%,100.227%,109.033%,95.3089%,100.249%,102.648%,
"C[C@]12CC[C@@H]3c4ccc(O)cc4CC[C@H]3[C@@H]1CC[C@@H]2O [E2, Estradiol]",,,100%,112.55%,120.84%,121.306%,150.417%,144.117%,138.919%,100%,82.8535%,97.2662%,131.541%,123.252%,108.413%,120.974%,
"CCCCCCCCCN1C[C@]2(CC[C@H]3[C@@H]4CC[C@H]5NC(=O)CC[C@]5(C)[C@H]4CC[C@@]32C)OC1=O [INH7-464, (4aR,4bS,6aS,7R,9aS,9bR,11aR)-4a,6a-dimethyl-3′-nonyltetradecahydrospiro [indeno[5,4-f]quinoline-7,5′-oxazolidine]-2,2′(1H)-dione]",2670 nM,582 nM,100%,100.51%,78.1158%,76.9139%,63.5165%,67.9195%,50.9558%,100%,88.1406%,81.8741%,84.2617%,66.5956%,67.8843%,59.6876%,"tolerability after weekly subcutaneous injection ([4]; 8/group, 20-60 mg/kg weekly s.c. for 3 weeks (21 days)): very well tolerated; apparent toxicity ([4]; 20-60 mg/kg weekly (s.c.)): no apparent toxicity; weight changes of liver, kidney, ovary and uterus ([4]; after 3 weeks of weekly s.c. 20, 30 and 60 mg/kg): no significant weight changes; inhibition of MCF-7 cell proliferation (% of DNA synthesis vs control 0.1 nM E1) (MCF-7 cell proliferation): significant inhibition at 2 μM; decrease in the tumor size relative to the control (E1) (human T47D breast tumors; T47D xenograft model, day 22, 5 mg/kg/day): 51%±5%; body weight of the nude mice [5]: absence of weight loss; decrease in the tumor size relative to the control (E1) ([3]; MCF-7 xenograft model, day 22, 5 mg/kg/day): 60%±5%"
